{"source": "paper PMC9617675", "about": "(Antiviral Research, 2022)", "test_system": "SARS-CoV-2 Delta variant", "conditions": "for lung histopathology (H&E): day 2 and day 4; for brain histopathology (H&E): day 4", "key": {"[1]": {"conditions": "day 4, both 100 mpk and 200 mpk groups"}}, "note": "Where two headings read alike, the source gives them in different places."}
{"smiles": "O=C[C@H](C[C@@H]1CCNC1=O)NC(=O)[C@H](CC1CCCCC1)NC(=O)c1cc2ccccc2[nH]1", "note": "[FB2001]", "values": [{"measurement": "change in the body weight of the mice", "setting": "100 mpk and 200 mpk groups, vs day 0", "value": "no significant change"}, {"measurement": "reduction of lung viral load", "setting": "100 mpk, day 2, vs vehicle", "value": 1.02, "unit": "log10 copies/g"}, {"measurement": "lung histopathology (H&E)", "setting": "100 mpk", "value": "mild interstitial inflammatory cell infiltration"}, {"measurement": "brain histopathology (H&E)", "setting": "100 mpk", "value": "some neurons were denatured"}, {"measurement": "reduction of brain viral load", "setting": "100 mpk, day 4, vs vehicle", "value": 2.37, "unit": "log10 copies/g"}, {"measurement": "reduction of lung viral load", "setting": "100 mpk, day 4, vs vehicle", "value": 0.67, "unit": "log10 copies/g"}, {"measurement": "reduction of lung viral load", "setting": "200 mpk, day 2, vs vehicle", "value": 1.60, "unit": "log10 copies/g"}, {"measurement": "reduction of virus titer in lung", "setting": "200 mpk, day 2, vs vehicle", "value": 3.57, "unit": "log10 PFU/g"}, {"measurement": "lung histopathology (H&E)", "setting": "200 mpk", "value": "decreased inflammation and normal alveolar spaces"}, {"measurement": "brain histopathology (H&E)", "setting": "200 mpk", "value": "Neuronal cells were neatly arranged and abundant"}, {"measurement": "reduction of brain viral load", "setting": "200 mpk, day 4, vs vehicle", "value": 5.26, "unit": "log10 copies/g"}, {"measurement": "reduction of lung viral load", "setting": "200 mpk, day 4, vs vehicle", "value": 1.14, "unit": "log10 copies/g"}, {"measurement": "brain immunohistochemistry staining of viral NP", "setting": "[1]", "value": "nearly cleared"}, {"measurement": "lung immunohistochemistry staining of viral NP", "setting": "[1]", "value": "almost cleared"}, {"measurement": "Viral titer in brain, Mean", "setting": "mouse, in vivo", "value": "below the detection limit"}, {"measurement": "Viral titer in lung, Mean", "setting": "mouse, in vivo", "value": "below the detection limit"}]}
